Several values for one entry are separate records, joined by “and”; a condition that tells them apart may be missing. Identical values can stand only once. Toxic doses and inconclusive results are not listed.
Test system: P388 leukemia ip, CD2F1 mice, survival T/C
Assay: NCI In Vivo Anticancer Drug Screen. Data for tumor model P388 Leukemia (intraperitoneal) in CD2F1 (CDF1) mice
Settings: endpoint: median survival time, higher = longer survival
In short: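 Mice carrying the transplanted tumor received test compound or vehicle. Survival was recorded in each group, and the value is the treated-group measurement divided by that of the vehicle-treated control group.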

[1] = dose: 60.0 mg/kg/injection, schedule: Q01DX005 (ip), vehicle: saline
[2] = dose: 120.0 mg/kg/injection, schedule: Q01DX005 (ip), vehicle: saline
[3] = dose: 240.0 mg/kg/injection, schedule: Q01DX005 (ip), vehicle: saline
[4] = dose: 100.0 mg/kg/injection, schedule: Q01DX009 (ip), vehicle: saline
[5] = dose: 50.0 mg/kg/injection, schedule: Q01DX005 (ip), vehicle: Klucel (hydroxypropylcellulose) (HPC)
[6] = dose: 100.0 mg/kg/injection, schedule: Q01DX005 (ip), vehicle: Klucel (hydroxypropylcellulose) (HPC)
[7] = dose: 200.0 mg/kg/injection, schedule: Q01DX005 (ip), vehicle: Klucel (hydroxypropylcellulose) (HPC)
[8] = dose: 50.0 mg/kg/injection, schedule: Q04DX002 (ip), vehicle: saline with Tween-80
[9] = dose: 100.0 mg/kg/injection, schedule: Q04DX002 (ip), vehicle: saline with Tween-80
[10] = dose: 50.0 mg/kg/injection, schedule: Q01DX009 (ip), vehicle: saline with Tween-80
[11] = dose: 100.0 mg/kg/injection, schedule: Q01DX009 (ip), vehicle: saline with Tween-80
[12] = dose: 200.0 mg/kg/injection, schedule: Q01DX009 (ip), vehicle: saline with Tween-80
[13] = dose: 60.0 mg/kg/injection, schedule: Q01DX005 (ip), vehicle: saline with Tween-80
[14] = dose: 120.0 mg/kg/injection, schedule: Q01DX005 (ip), vehicle: saline with Tween-80
[15] = dose: 240.0 mg/kg/injection, schedule: Q01DX005 (ip), vehicle: saline with Tween-80
[16] = dose: 100.0 mg/kg/injection, schedule: Q04DX003 (ip), vehicle: saline
[17] = dose: 50.0 mg/kg/injection, schedule: Q01DX005 (ip), vehicle: saline
[18] = dose: 100.0 mg/kg/injection, schedule: Q01DX005 (ip), vehicle: saline
[19] = dose: 200.0 mg/kg/injection, schedule: Q01DX005 (ip), vehicle: saline
[20] = dose: 60.0 mg/kg/injection, schedule: Q01DX005 (ip), vehicle: Klucel (hydroxypropylcellulose) (HPC)
[21] = dose: 120.0 mg/kg/injection, schedule: Q01DX005 (ip), vehicle: Klucel (hydroxypropylcellulose) (HPC)
[22] = dose: 240.0 mg/kg/injection, schedule: Q01DX005 (ip), vehicle: Klucel (hydroxypropylcellulose) (HPC)
[23] = dose: 50.0 mg/kg/injection, schedule: Q01DX005 (ip), vehicle: saline with Tween-80

## CCCNC(=O)OCCN(CCOC(=O)NCCC)CCc1cccc(OC)c1OC
[1]
  T/C: 101 % of control
[2]
  T/C: 105 % of control
[3]
  T/C: 100 % of control

## CCN(CC)C(CC(=O)C(C)(C)C)=NCCCN1CCN(C)CC1
dose: 50.0 mg/kg/injection, schedule: Q01DX009 (ip), vehicle: saline
  T/C: 98 % of control
[4]
  T/C: 100 % of control

## CC(NC(=O)OCc1ccccc1)C(=O)NCC(=O)OCc1ccccc1 (configuration not stated)
[5]
  T/C: 100 % of control
[6]
  T/C: 98 % of control
[7]
  T/C: 104 % of control

## O=C1C(C(=NCCCN2CCOCC2)c2ccccc2)=C(O)c2ccccc21
dose: 25.0 mg/kg/injection, schedule: Q04DX002 (ip), vehicle: saline with Tween-80
  T/C: 102 % of control
[8]
  T/C: 101 % of control
[9]
  T/C: 109 % of control

## C[Si](C)(C)c1c[nH]c(=O)[nH]c1=O
[10]
  T/C: 102 % of control
[11]
  T/C: 98 % of control and 96 % of control
[12]
  T/C: 102 % of control

## O=C(NC(Cc1c[nH]c2ccccc12)C(=O)O)C(=O)c1c[nH]c2ccccc12 (configuration not stated)
[13]
  T/C: 100 % of control
[14]
  T/C: 97 % of control
[15]
  T/C: 90 % of control

## O=S(=O)(O)CCCNC(CO)(CO)CO
[1]
  T/C: 106 % of control
[2]
  T/C: 107 % of control
[3]
  T/C: 107 % of control

## CN(C)CCCOC1=Nc2ccccc2O/C1=C/c1cccs1
dose: 25.0 mg/kg/injection, schedule: Q04DX003 (ip), vehicle: saline
  T/C: 94 % of control
dose: 50.0 mg/kg/injection, schedule: Q04DX003 (ip), vehicle: saline
  T/C: 94 % of control
[16]
  T/C: 100 % of control and 94 % of control

## O=c1c(-c2ccccc2)cc2c(-c3ccccc3)oc(-c3ccccc3)c2cc1-c1ccccc1
[8]
  T/C: 90 % of control
[9]
  T/C: 94 % of control
dose: 200.0 mg/kg/injection, schedule: Q04DX002 (ip), vehicle: saline with Tween-80
  T/C: 92 % of control

## S=C1NCCNC(=S)SS1
[6]
  T/C: 108 % of control

## Cc1cc(O)ccc1O
[4]
  T/C: 100 % of control and 116 % of control
dose: 200.0 mg/kg/injection, schedule: Q01DX009 (ip), vehicle: saline
  T/C: 112 % of control and 117 % of control

## CCCCCCCCCCS(=O)CC(CO)NC(=O)/C=C/c1c(C)[nH]c(=O)[nH]c1=O (configuration not stated)
dose: 0.78 mg/kg/injection, schedule: Q01DX009 (ip), vehicle: other
  T/C: 107 % of control and 116 % of control
dose: 1.56 mg/kg/injection, schedule: Q01DX009 (ip), vehicle: other
  T/C: 115 % of control
dose: 6.25 mg/kg/injection, schedule: Q01DX009 (ip), vehicle: other
  T/C: 153 % of control

## CC1(C)CC(=O)N(CN2CCCCC2)C(=O)C1
dose: 100.0 mg/kg/injection, schedule: Q04DX002 (ip), vehicle: Klucel (hydroxypropylcellulose) (HPC)
  T/C: 114 % of control
dose: 200.0 mg/kg/injection, schedule: Q04DX002 (ip), vehicle: Klucel (hydroxypropylcellulose) (HPC)
  T/C: 120 % of control

## CCN(CC)CCOC(=O)c1cc2cc3cc(C(=O)OCCN(CC)CC)c(=O)oc3c(C)c2oc1=O
[17]
  T/C: 113 % of control
[18]
  T/C: 114 % of control
[19]
  T/C: 107 % of control

## c1ccc(-c2cc(-c3ccccc3)o/c(=N/n3cnnc3)c2)cc1
[5]
  T/C: 99 % of control
[6]
  T/C: 89 % of control
[7]
  T/C: 89 % of control

## CCOC(=O)C(Cc1ccc(O)cc1)NS(=O)(=O)c1ccc(C)cc1 (configuration not stated)
[10]
  T/C: 98 % of control
[11]
  T/C: 100 % of control
[12]
  T/C: 108 % of control

## O=c1c2ccccc2nc2sc3nc4ccccc4c(=O)n3n12
dose: 15.0 mg/kg/injection, schedule: Q01DX005 (ip), vehicle: Klucel (hydroxypropylcellulose) (HPC)
  T/C: 94 % of control
dose: 30.0 mg/kg/injection, schedule: Q01DX005 (ip), vehicle: Klucel (hydroxypropylcellulose) (HPC)
  T/C: 91 % of control
[20]
  T/C: 88 % of control and 92 % of control
[21]
  T/C: 89 % of control
[22]
  T/C: 96 % of control

## C/C(=N\N=c1\sc2ccccc2n1CC(=O)O)c1ccccc1
dose: 100.0 mg/kg/injection, schedule: Q01DX001 (ip), vehicle: saline with Tween-80
  T/C: 97 % of control
dose: 200.0 mg/kg/injection, schedule: Q01DX001 (ip), vehicle: saline with Tween-80
  T/C: 89 % of control

## O=C(NCc1ccccc1)c1ccccc1NS(=O)(=O)c1ccc(Cl)c(Cl)c1
[23]
  T/C: 96 % of control
dose: 100.0 mg/kg/injection, schedule: Q01DX005 (ip), vehicle: saline with Tween-80
  T/C: 87 % of control
dose: 200.0 mg/kg/injection, schedule: Q01DX005 (ip), vehicle: saline with Tween-80
  T/C: 93 % of control

## Brc1ccc(C2=NOP(c3ccccc3)(c3ccccc3)(c3ccccc3)C2)cc1
dose: 50.0 mg/kg/injection, schedule: Q01DX009 (ip), vehicle: Klucel (hydroxypropylcellulose) (HPC)
  T/C: 99 % of control
dose: 100.0 mg/kg/injection, schedule: Q01DX009 (ip), vehicle: Klucel (hydroxypropylcellulose) (HPC)
  T/C: 96 % of control

## CSC(=O)N(C)C(=O)Nc1cccc([N+](=O)[O-])c1
dose: 100.0 mg/kg/injection, schedule: Q04DX003 (ip), vehicle: Klucel (hydroxypropylcellulose) (HPC)
  T/C: 100 % of control
dose: 200.0 mg/kg/injection, schedule: Q04DX003 (ip), vehicle: Klucel (hydroxypropylcellulose) (HPC)
  T/C: 99 % of control
dose: 400.0 mg/kg/injection, schedule: Q04DX003 (ip), vehicle: Klucel (hydroxypropylcellulose) (HPC)
  T/C: 90 % of control

## CC(=O)CCC(=O)CC(=O)CCC(=O)Nc1cc(Cl)ccc1Cl
[13]
  T/C: 107 % of control
[14]
  T/C: 106 % of control
[15]
  T/C: 101 % of control

## CC1OCOC(CO)C(O)C1O (configuration not stated)
[17]
  T/C: 101 % of control
[18]
  T/C: 105 % of control
[19]
  T/C: 105 % of control

## CC(/C=N\Nc1ccc(C(=O)O)cc1)=N/N=C(N)N
[16]
  T/C: 99 % of control
dose: 200.0 mg/kg/injection, schedule: Q04DX003 (ip), vehicle: saline
  T/C: 98 % of control
dose: 400.0 mg/kg/injection, schedule: Q04DX003 (ip), vehicle: saline
  T/C: 100 % of control

## COC(=O)C12CC3CC(CC(NC(=O)C(Cc4ccccc4)NC(=O)CN)(C3)C1)C2 (configuration not stated)
[1]
  T/C: 94 % of control
[2]
  T/C: 99 % of control
[3]
  T/C: 94 % of control

## COc1ccc(OC)c2c(Cl)ccnc12
dose: 12.5 mg/kg/injection, schedule: Q01DX005 (ip), vehicle: saline with Tween-80
  T/C: 99 % of control
dose: 25.0 mg/kg/injection, schedule: Q01DX005 (ip), vehicle: saline with Tween-80
  T/C: 103 % of control
[23]
  T/C: 97 % of control

## COC(=O)[C@@H]1O[C@H]2OC=C[C@H]21
dose: 12.5 mg/kg/injection, schedule: Q01DX005 (ip), vehicle: saline
  T/C: 112 % of control
dose: 25.0 mg/kg/injection, schedule: Q01DX005 (ip), vehicle: saline
  T/C: 108 % of control
[17]
  T/C: 99 % of control and 100 % of control

## CCOC(=O)c1n[nH]nc1Nc1cncc(Nc2n[nH]nc2C(=O)OCC)n1
[20]
  T/C: 102 % of control
[21]
  T/C: 97 % of control
[22]
  T/C: 97 % of control

## O=C1Nc2c(cccc2-c2ccccc2)C(=O)C1(O)c1ccccc1 (configuration not stated)
[20]
  T/C: 97 % of control
[21]
  T/C: 94 % of control
[22]
  T/C: 90 % of control
